The values that follow come from US8557833B2, “Aminopyrimidines useful as kinase inhibitors” (priority 2005, dated 2013).

Like-named read-outs stand apart in the source and are kept apart here.

Data set [1] addresses T1, Aurora-2 (Aurora A) (Homo sapiens, UniProt O14965).
T1 sequence (O14965 1-403): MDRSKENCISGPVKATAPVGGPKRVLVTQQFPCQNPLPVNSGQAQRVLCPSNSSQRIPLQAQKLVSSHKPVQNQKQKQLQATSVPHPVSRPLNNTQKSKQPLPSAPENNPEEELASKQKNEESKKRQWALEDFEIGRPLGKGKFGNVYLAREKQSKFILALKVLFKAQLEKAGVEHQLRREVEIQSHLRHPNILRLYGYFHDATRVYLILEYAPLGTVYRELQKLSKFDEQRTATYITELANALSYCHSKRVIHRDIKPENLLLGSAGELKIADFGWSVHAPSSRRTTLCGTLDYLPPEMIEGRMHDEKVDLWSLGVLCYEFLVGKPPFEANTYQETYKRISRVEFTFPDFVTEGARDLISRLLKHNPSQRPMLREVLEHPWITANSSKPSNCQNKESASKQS
Nature of the data set: Aurora-2 (Aurora A) inhibition assay, coupled enzyme. The data set is classed as biochemical. On the procedure:
Assays were carried out in a mixture of 100 mM Hepes (pH7.5), 10 mM MgCl2, 1 mM DTT, 25 mM NaCl, 2.5 mM phosphoenolpyruvate, 300 μM NADH, 30 μg/ml pyruvate kinase and 10 μg/ml lactate dehydrogenase. […] Assays were carried out at 30° C. and in the presence of 40 nM Aurora-2.
An assay stock buffer solution was prepared containing all of the reagents listed above, with the exception of Aurora-2 and the test compound of interest. […] The plate was preincubated for 10 minutes at 30° C. and the reaction initiated by addition of 10 μl of Aurora-2. Initial reaction rates were determined with a Molecular Devices SpectraMax Plus plate reader over a 10 minute time course. IC50 and Ki data were calculated from non-linear regression analysis using the Prism software package (GraphPad Prism version 3.0cx for Macintosh, GraphPad Software, San Diego Calif., USA).

Data set [2] addresses Aurora-1 (Aurora B) (Homo sapiens, UniProt Q96GD4). The data set can be described thus: Aurora-1 (Aurora B) inhibition assay (radiometric). Format: biochemical. On the procedure:
An assay buffer solution was prepared which consisted of 25 mM HEPES (pH 7.5), 10 mM MgCl2, 0.1% BSA and 10% glycerol. […] To 22 μL of the Aurora-B solution, in a 96-well plate, was added 2 μl of a compound stock solution in DMSO and the mixture allowed to equilibrate for 10 minutes at 25° C. The enzyme reaction was initiated by the addition of 16 μl stock [γ-^33P]-ATP solution (˜20 nCi/μL) prepared in assay buffer, to a final assay concentration of 800 μM. The reaction was stopped after 3 hours by the addition of 16 μL 500 mM phosphoric acid and the levels of ^33P incorporation into the peptide substrate were determined by the following method.
A phosphocellulose 96-well plate (Millipore, Cat no. MAPHNOB50) was pre-treated with 100 μL of a 100 mM phosphoric acid prior to the addition of the enzyme reaction mixture (40 μL). The solution was left to soak on to the phosphocellulose membrane for 30 minutes and the plate subsequently washed four times with 200 μL of a 100 mM phosphoric acid. […] Levels of non-enzyme catalyzed background radioactivity were determined by adding 16 μL of the 500 mM phosphoric acid to control wells, containing all assay components (which acts to denature the enzyme), prior to the addition of the [γ-^33P]-ATP solution. Levels of enzyme catalyzed ^33P incorporation were calculated by subtracting mean background counts from those measured at each inhibitor concentration. […] Ki values were calculated from initial rate data by non-linear regression using the Prism software package (Prism 3.0, Graphpad Software, San Diego, Calif.).

Data set [3] in a line: Microsomal stability assay. The settings on record: 5 μM compound, 1 mg/mL liver microsome protein, 37° C., species not given. Format: in vitro ADME. On the procedure: Microsomal stability was monitored by generation of depletion-time profiles in microsomes from a range of species (male CD-1 mouse, male Sprague-Dawley rat, male Beagle dog, male Cynomolgus monkey and pooled mixed gender human). Compound spiking solutions were made up by diluting down the compound stock solution in DMSO (typically 10 mM) to give a solution in acetonitrile (0.5 mM). […].
The reaction was initiated by the addition (250 μL) of the pre-incubated RGS to the pre-incubated microsome/VRT/PB mixture (pre-incubation in both instances was for 10 minutes at 37° C.). Samples were incubated within Eppendorf vials (1.5 ml) on a heater shaker (DPC Micromix 5 (settings; form 20, amplitude 4) modified to be heated, to 37° C., by two plate heaters fixed to the deck and controlled by a Packard Manual Heater) attached to a Multiprobe II HT Ex automated liquid handler. The liquid handler was programmed (WinPREP software) to sample the microsomal incubation mixture after 0, 2, 10, 30 and 60 minutes of incubation and transfer an aliquot (100 μL) to a stop block (96-well block) containing 100 μL of chilled methanol. The % organic in the stop mixture was optimized for analysis by addition of appropriate volumes of aqueous/organic (typically 100 μl of 50:50 methanol:water).
Prior to analysis the stop block was placed on a shaker (DPC Micromix 5; 10 min, form 20, amplitude 5) to precipitate out proteins. The block was then centrifuged (Jouan GR412; 2000 rpm, 15 min, 4° C.). A sample aliquot (200 μL) was then transferred to an analysis block and the block was centrifuged again (Jouan GR412; 2000 rpm, 5 min, 4° C.) prior to being sent for analysis. Depletion profiles were determined by monitoring the disappearance of VRT by liquid chromatography-tandem mass spectrometry (LC-MS/MS). Samples were injected (20 μL; Agilent 1100 liquid chromatographic system equipped with autosampler) onto an analytical column. Mobile phase consisted of Water+0.05% (v/v) formic acid (A) and methanol+0.05% (v/v) formic acid (B).
Running a gradient method optimized for the compound of interest carried out the compound elution from analytical column. The total run time was 6 minutes with a flow rate of 0.35 mL/min. The entire column effluent entered the electrospray ionization source (positive mode) of a Micromass Quattro LC tandem mass spectrometer between 0.5 and 5.9 min of the run. The mass spectrometry was optimized for the compound of interest. All incubations were conducted in duplicate and results were expressed as % parent remaining at either 30 minutes or 60 minutes relative to 0 minutes sample.

Data set [4] addresses JAK-2 (Homo sapiens, UniProt O60674). The data set can be described thus: JAK2 inhibition assay. The data set is classed as biochemical. The settings on record: 12 μM ATP, 15 μM poly(Glu)4Tyr.
Data set [5] has as its target T2, FLT-3 (Homo sapiens, UniProt P36888).
T2 sequence (P36888 27-993): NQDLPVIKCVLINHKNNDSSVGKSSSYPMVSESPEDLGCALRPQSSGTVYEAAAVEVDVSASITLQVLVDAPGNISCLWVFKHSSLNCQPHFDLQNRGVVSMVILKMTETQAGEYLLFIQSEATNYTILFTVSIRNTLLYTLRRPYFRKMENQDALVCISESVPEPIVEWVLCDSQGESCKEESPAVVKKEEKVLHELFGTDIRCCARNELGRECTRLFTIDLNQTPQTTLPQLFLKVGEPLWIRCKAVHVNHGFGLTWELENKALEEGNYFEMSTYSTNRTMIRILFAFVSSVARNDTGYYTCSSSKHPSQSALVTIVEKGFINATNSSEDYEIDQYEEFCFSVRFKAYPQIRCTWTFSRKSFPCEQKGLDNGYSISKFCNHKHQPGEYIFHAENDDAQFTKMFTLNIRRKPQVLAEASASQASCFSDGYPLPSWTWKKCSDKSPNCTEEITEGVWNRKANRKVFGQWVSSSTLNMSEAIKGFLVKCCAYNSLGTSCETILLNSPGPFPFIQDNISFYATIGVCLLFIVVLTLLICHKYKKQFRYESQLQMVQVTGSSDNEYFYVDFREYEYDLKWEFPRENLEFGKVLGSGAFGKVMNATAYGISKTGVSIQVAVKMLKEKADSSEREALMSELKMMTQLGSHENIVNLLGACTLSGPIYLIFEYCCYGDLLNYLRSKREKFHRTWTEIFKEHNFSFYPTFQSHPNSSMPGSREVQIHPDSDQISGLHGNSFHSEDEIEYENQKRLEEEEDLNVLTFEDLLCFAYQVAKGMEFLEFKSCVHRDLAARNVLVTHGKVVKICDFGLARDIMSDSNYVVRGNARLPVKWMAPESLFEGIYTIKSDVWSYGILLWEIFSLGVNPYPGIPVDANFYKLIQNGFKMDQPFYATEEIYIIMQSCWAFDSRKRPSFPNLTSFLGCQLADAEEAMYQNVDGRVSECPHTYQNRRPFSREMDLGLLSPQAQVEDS
Nature of the data set: FLT-3 inhibition assay, radiometric filter-binding. Format: biochemical. The procedure:
This assay monitors the 33P incorporation into a substrate poly(Glu, Tyr) 4:1 (pE4Y). […] Final substrate concentrations in the assay were 90 μM ATP and 0.5 mg/ml pE4Y (both from Sigma Chemicals, St Louis, Mo.). […] Reactions were carried out at room temperature.
Two assay solutions were prepared. Solution 1 contains 100 mM HEPES (pH 7.5), 10 mM MgCl2, 25 mM NaCl, 1 mg/ml pE4Y and […] (containing 0.3 mCi of [γ-33^P]ATP for each reaction). Solution 2 contains 100 mM HEPES (pH 7.5), 10 mM MgCl2, 25 mM NaCl, 2 mM DTT, 0.02% BSA and 3 nM FLT-3. The assay was run on a 96 well plate by mixing 50 μl each of Solution 1 and […] of the compounds of the present invention. The reaction was initiated with Solution 2. […] All of the reaction volume was then transferred to a filter plate and washed with 5% TCA by a Harvester 9600 from TOMTEC (Hamden, Conn.). The amount of ^33P incorporation into pE4y was analyzed by a Packard Top Count Microplate Scintillation Counter (Meriden, Conn.). The data was fitted using Prism software to get an IC50 or Ki.

In data set [6] the target is N-terminally truncated Abl kinase. Nature of the data set: Abl kinase activity inhibition assay, coupled enzyme. The data set is classed as biochemical. To be noted: read-out: Abl (wild) Ki; 110 μM ATP, 30° C., 21 nM Abl kinase. On the procedure:
Final concentrations of the components of the coupled enzyme system were 2.5 mM phosphoenolpyruvate, 200 μM NADH, […] pyruvate kinase and 20 μg/ml lactate dehydrogenase.
An assay stock buffer solution was prepared containing all of the reagents listed above with the exception of ATP and the test compound of interest. […] Rates of reaction were obtained using a Molecular Devices Spectramax plate reader (Sunnyvale, Calif.) over 10 min at 30° C. The Ki values were determined from the residual rate data as a function of inhibitor concentration using nonlinear regression (Prism 3.0, Graphpad Software, San Diego, Calif.).

[7] abbreviates: 400 μM ATP, 570 μM Kemptide, 30° C., 40 nM Aurora-2, read-out: Aurora A Ki.
Setting [8] is: 800 μM ATP, Kemptide, 25° C., read-out: Aurora B Ki.

JAK-2, sequence (O60674 whole entry, species assumed): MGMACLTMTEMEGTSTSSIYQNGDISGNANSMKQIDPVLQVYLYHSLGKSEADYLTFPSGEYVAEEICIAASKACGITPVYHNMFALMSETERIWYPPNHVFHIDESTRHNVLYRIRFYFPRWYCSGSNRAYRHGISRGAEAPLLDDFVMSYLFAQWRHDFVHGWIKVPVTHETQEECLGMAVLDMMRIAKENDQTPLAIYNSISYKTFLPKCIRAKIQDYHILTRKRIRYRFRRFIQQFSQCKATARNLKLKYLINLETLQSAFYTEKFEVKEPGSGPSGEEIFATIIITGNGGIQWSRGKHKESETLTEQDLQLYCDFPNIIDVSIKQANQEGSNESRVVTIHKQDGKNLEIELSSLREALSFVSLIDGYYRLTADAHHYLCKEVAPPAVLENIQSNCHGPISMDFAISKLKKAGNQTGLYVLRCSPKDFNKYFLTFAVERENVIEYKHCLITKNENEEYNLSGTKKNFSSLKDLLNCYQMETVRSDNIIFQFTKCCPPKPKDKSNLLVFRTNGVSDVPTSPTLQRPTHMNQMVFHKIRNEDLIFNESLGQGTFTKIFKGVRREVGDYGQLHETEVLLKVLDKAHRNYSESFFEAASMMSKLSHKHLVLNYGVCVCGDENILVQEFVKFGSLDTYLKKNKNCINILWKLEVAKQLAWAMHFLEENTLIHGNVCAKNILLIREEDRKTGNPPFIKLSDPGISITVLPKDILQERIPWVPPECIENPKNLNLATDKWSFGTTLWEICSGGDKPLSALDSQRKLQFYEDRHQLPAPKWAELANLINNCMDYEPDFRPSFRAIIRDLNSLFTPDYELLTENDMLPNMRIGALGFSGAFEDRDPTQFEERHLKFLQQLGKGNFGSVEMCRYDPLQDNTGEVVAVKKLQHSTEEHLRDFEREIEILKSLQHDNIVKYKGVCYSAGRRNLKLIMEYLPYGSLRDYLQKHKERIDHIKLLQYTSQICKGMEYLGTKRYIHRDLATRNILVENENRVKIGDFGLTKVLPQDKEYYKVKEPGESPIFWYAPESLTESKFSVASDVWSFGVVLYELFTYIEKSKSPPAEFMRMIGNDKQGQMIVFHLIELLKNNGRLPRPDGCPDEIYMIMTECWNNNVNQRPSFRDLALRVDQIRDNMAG
Aurora-1 (Aurora B), sequence (Q96GD4 whole entry): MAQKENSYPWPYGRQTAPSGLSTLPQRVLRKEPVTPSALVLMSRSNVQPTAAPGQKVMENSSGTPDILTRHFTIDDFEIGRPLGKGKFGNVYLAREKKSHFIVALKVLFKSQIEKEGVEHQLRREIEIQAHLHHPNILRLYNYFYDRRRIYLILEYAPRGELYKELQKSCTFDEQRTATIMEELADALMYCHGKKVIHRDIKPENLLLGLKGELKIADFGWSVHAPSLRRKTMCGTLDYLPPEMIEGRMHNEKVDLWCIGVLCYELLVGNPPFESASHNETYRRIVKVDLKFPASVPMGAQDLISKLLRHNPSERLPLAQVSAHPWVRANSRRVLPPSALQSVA
N-terminally truncated Abl kinase, sequence (P00519 28-1130): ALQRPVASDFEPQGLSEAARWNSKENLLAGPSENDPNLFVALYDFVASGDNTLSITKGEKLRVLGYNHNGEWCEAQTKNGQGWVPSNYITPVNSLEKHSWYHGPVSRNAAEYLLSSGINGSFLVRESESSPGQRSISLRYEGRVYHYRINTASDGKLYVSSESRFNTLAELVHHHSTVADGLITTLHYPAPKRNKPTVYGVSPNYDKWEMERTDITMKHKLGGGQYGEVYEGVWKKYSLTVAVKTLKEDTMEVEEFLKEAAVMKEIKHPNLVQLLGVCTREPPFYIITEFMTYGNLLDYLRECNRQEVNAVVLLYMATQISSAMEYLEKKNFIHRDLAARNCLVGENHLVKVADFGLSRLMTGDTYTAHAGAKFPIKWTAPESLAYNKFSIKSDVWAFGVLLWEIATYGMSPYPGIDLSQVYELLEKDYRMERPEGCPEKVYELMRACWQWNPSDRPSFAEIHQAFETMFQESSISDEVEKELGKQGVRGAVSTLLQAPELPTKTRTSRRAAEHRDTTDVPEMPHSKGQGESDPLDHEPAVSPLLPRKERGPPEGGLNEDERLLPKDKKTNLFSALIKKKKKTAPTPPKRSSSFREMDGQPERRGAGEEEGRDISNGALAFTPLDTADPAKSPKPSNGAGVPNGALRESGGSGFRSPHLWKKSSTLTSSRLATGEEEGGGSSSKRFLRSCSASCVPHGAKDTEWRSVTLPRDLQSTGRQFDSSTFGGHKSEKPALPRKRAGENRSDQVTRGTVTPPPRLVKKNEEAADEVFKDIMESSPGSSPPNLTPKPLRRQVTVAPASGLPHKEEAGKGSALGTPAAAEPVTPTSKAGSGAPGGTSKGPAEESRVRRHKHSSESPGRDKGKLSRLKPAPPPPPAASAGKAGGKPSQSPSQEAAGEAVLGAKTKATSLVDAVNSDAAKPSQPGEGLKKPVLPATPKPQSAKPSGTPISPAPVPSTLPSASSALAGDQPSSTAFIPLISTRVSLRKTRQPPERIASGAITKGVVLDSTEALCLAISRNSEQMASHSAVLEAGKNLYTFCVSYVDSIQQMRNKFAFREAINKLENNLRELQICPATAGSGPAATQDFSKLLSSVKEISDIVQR

With `Cc1cc(Nc2cc(N3CCC3)nc(Sc3ccc(NC(=O)c4cc(F)ccc4F)cc3)n2)[nH]n1` [Compound I-10], the Ki (as a rule, a measure of affinity in units of concentration, obtained from inhibition or displacement) in data set [1] (setting [7]) was 1.8 nM; in data set [2] (setting [8]), under 25 nM.
As for `CSc1ccccc1C(=O)Nc1ccc(Sc2nc(Nc3cc(C)[nH]n3)cc(N3CCC3)n2)cc1` [Compound I-23], the inhibition constant (Ki) is 1.4 nM in data set [1] and 6 nM in data set [2] (setting [8]).
For the molecule `COc1cccc(C(=O)Nc2ccc(Sc3nc(Nc4cc(C)n[nH]4)cc(N4CCC4)n3)cc2)c1` [Compound I-18], the Ki in data set [1] (setting [7]) is 0.6 nM; in data set [2] (setting [8]), 8 nM; in data set [4], 63 nM. Also, the “Microsomal Stability (% remaining after 30 min.)” value in data set [3] is reported as 89%. The “Microsomal Stability (% remaining after 60 min.)” value in data set [3] was found to be 58%.
Take `Cc1cc(Nc2cc(N3CCC3)nc(Sc3ccc(NC(=O)c4ccccc4Cl)nc3)n2)[nH]n1` [Compound I-24]: the Ki in data set [1] (setting [7]) is 1 nM; in data set [5], 700 nM; in data set [2] (setting [8]) it was 18 nM; in data set [4], 660 nM.
In the case of `Cc1cc(Nc2cc(N3CCC3)nc(Sc3ccc(NC(=O)c4cccc(F)c4F)cc3)n2)[nH]n1` [Compound I-7], the “Microsomal Stability (% remaining after 30 min.)” value in data set [3] is listed as 102%. Moreover, the “Microsomal Stability (% remaining after 60 min.)” value in data set [3] worked out at 69%. Moreover, the Ki in data set [5] (90 μM ATP, 0.5 mg/ml pE4Y, room temperature, read-out: FLT-3 Ki) worked out at 250 nM; in data set [2] (setting [8]) it was 5.1 nM; in data set [6] it was 35 nM; in data set [4], 41 nM.
With `CCc1cc(Nc2cc(N3CCC3)nc(Sc3ccc(NC(=O)c4ccccc4Cl)cc3)n2)n[nH]1` [Compound I-16], the Ki in data set [1] came to 0.56 nM; in data set [2] it was 7.5 nM; in data set [4], 440 nM. For the same molecule, in data set [3], the “Microsomal Stability (% remaining after 30 min.)” value was 91%. The “Microsomal Stability (% remaining after 60 min.)” value in data set [3] came to 63%.
For the molecule `Cc1cc(Nc2cc(N3CCC3)nc(Sc3ccc(NC(=O)c4cccc(Cl)c4Cl)cc3)n2)n[nH]1` [Compound I-9], the Ki was found to be 0.85 nM in data set [1] and 6.5 nM in data set [2]. Moreover, in data set [3], the “Microsomal Stability (% remaining after 60 min.)” value was determined as 69%.
